Literature values, collected in paper PMC12241124 (Frontiers in Microbiology, 2025).

Conditions: ref Mygind et al., 2005

plectasin
terminal serum elimination half-life: 51 min
